The source of these data is patent publication US11344527B2, “Methods and compositions for treating cancer” (Sutter West Bay Hospitals, priority 2007, dated 2022).

Test [1] has as its system MDA-MB231 cells. Description: Boyden chamber invasion assay, MDA-MB231. Format: cell-based, human. As to conditions: 0.1, 1.0 or 1.5 μM; FIG. 1A. As to the method:
Invasion is an important step towards breast cancer cell metastasis. Therefore, the effects of several cannabinoids were tested on their ability to modulate the migratory and invasiveness activity of the most aggressive human breast cancer cell line, MDA-MB231, in a reconstituted basement membrane in a Boyden chamber.

The test system of another test is Id-1. Description: Id-1 protein expression by quantitative Western analysis, MDA-MB231. Format: cell-based, human. As to conditions: MDA-MB231 cells, 1.5 μM, two days, FIG. 1E. An excerpt: Proteins were separated by SDS/PAGE, blotted on Immobilon membrane, and probed with anti-Id-1 and the appropriate secondary antibody. Band intensity values were obtained directly from the blot using AlphaeaseFC software (San Leandro, Calif.) or from film using Image-J (NIH, MD). As a normalization control for loading, blots were stripped and re-probed with mouse alpha-tubulin (Abeam, Cambridge, Mass.).
The ability of CBD to regulate the expression of key genes that control breast cancer cell aggressiveness and invasiveness was determined A potential candidate protein that could mediate the effects of CBD on both phenotypes was the helix-loop-helix protein Id-1. […] The inhibitory effect of CBD on Id-1 expression occurred at concentrations as low as 100 nM. […] The CBD concentrations effective at inhibiting Id-1 expression correlated with those used to inhibit the proliferative and invasive phenotype of MDA-MB231 cells. Furthermore, the time period needed to observe the down-regulation of Id-1 protein in the presence of CBD correlated with the inhibitory effects of CBD on the aggressiveness and invasiveness of MDA-MB231 cells (FIG. 1, panel D).
In order to determine the SAR between cannabinoids and the inhibition of Id-1, MDA-MB231 cells were treated for two days with multiple cannabinoid compounds and Id-1 protein levels were assessed.

For the next test, the system named is SF126 cells. Kind of test: MTT cell proliferation assay, SF126 GBM cells. The class given is cell-based, human. Particulars: Homo sapiens, read-out: IC50 antiproliferative, SF126. The protocol:
(§1) The human GBM cell lines used were SF126, U87 and U251. Cell lines were maintained at 37° C. and 5% CO2.
(§2) Treatment groups were divided into 1) no treatment (control), 2) Δ^9-THC alone, 3) CBD alone, 4) Δ^9-THC and CBD combined. Positive and negative aspects of constituent interaction were determined in this 2×2 design using 2-way analysis of variance as described by (Slinker, 1998). […] Significant differences were also determined using ANOVA where suitable. […] P values <0.05 defined statistical significance.
Background: Formazan colour is commonly taken as a measure of viable cells.

The subject of a further test is U87 cells. Description: MTT cell proliferation assay, U87 GBM cells. The class given is cell-based, human. As to conditions: Homo sapiens, U-87 MG, 168 h, seven day treatment, 95% confidence limits, read-out: IC50 antiproliferative, U87. The protocol:
as §1, §2

Test [2] deals with U251 cells. Description: MTT cell proliferation assay, U251 GBM cells. Format: cell-based, human. As to conditions: Homo sapiens, U-251, 168 h, seven day treatment, 95% confidence limits, read-out: IC50 antiproliferative, U251. As to the method:
as §1, §2

Test [3] deals with U251 cells. Kind of test: Boyden chamber invasion assay, U251. The class given is cell-based, human.
The test system of test [4] is U251 cells. Kind of test: Apoptosis (annexin staining, FACS), U251. The class given is cell-based, human. As to conditions: U251, three days. The protocol: Cells were grown in 6 well culture dishes and were treated with the appropriate compounds every 24 hours for three days. The cells were trypsinized, washed with PBS, and processed for labeling with fluorescein-tagged UTP nucleotide and PI by use of an Apo-Direct apoptosis kit obtained from Phoenix Flow Systems (San Diego, Calif.) and was used according to the manufacturer's protocol. The labeled cells were analyzed by flow cytometry. Cell Flow Cytometry in combination with PI and annexin staining was used to quantify the percentage of cells undergoing apoptosis in control and treatment groups. % control was calculated as annexin positive staining in treated cells/control cells×100. PI staining was used to distinguish necrotic cells from those undergoing apoptosis.

Another test has as its system ERK, JNK, and p38 MAPK. Kind of test: MAPK activity (pERK, ERK, JNK, p38) by Western analysis, U251. The class given is cell-based, human. The protocol:
Cells cultured and treated in 6-well dishes were washed twice with cold PBS. Lysis buffer was added and cells lysed by freezing for 10 min at −70° C. and then thawing. Cell lysate was collected and the concentration was determined using Bradford reagent. Equal amounts of protein were heated to 90° C. in Laemmli sample buffer with β-mercaptoethanol, and loaded onto a precast SDS-PAGE gel (Bio-Rad Laboratories, Hercules, Calif.). Protein was transferred to an Immobilon membrane (Millipore, Billerica, Mass.) overnight at 2-4° C. Blots were then blocked with 5% nonfat dry milk in TBS+Tween for 1 h. Primary antibody from Millipore (rabbit anti-phospho-JNK, rabbit anti-phospho-p38, rabbit anti-phospho-ERK1/2 and rabbit anti-ERK1/2, 1 mcg/mL) in blocking buffer was then added for 1 h. The blots were then rinsed three times 10 min with TBS+Tween. Secondary antibody (Donkey Anti-Rabbit IgG, Jackson Immunoresearch, West Grove, Pa.) was then added. Blots were incubated for 45 min and then washed 4 times for 15 min each. The blots were developed with SuperSignal Femto (Pierce, Rockford, Ill.), and imaged on either a Fluorchem 8900 (Alpha Innotech, San Leandro, Calif.) or ECL Hyperfilm (Amersham-Pharmacia, Piscataway, N.J.). Band intensity values were obtained (after background subtraction) directly from the […] using AlphaeaseFC software (San Leandro, Calif.) or from film using Image-J (NIH, MD). As a normalization control for loading, blots were stripped and re-probed with mouse alpha-tubulin (Abcam, Cambridge, Mass.) and goat anti-mouse IgG (Jackson Immunoresearch) for the primary and secondary antibodies, respectively.
The regulation of ERK, JNK, and p38 MAPK activity plays a role in controlling cell growth and apoptosis. U251 cells were used to determine whether modulation of ERK, JNK, and p38 MAPK activity occurred.

For test [5], the system named is U251 cells. Kind of test: Cell cycle analysis (PI staining, FACS), U251. The class given is cell-based, human. As to conditions: Δ9-THC 1.7 μM and/or CBD 0.4 μM, FIG. 8. The protocol:
U251 cells were grown in Petri dishes (100 mm×15 mm) and received drug treatments for 2 days. On the third day, the cells were harvested and centrifuged at 1200 rpm for 5 minutes. The pellet was washed 1× with PBS+1% BSA, and centrifuged again. The pellet was resuspended in 0.5 ml of 2% paraformaldehyde (diluted with PBS) and left to fix overnight at room temperature. The next day the cells were pelleted and resuspended in 0.5 ml 0.3% Triton in PBS and incubated for 5 minutes at room temperature. The cells were then washed 2 times with PBS+1% BSA. The cells were finally suspended in PBS (0.1% BSA) with 10 ug/ml Propidium Iodide and 100 μg/ml RNAse. The cells were incubated for 30 minutes at room temperature before being stored at 4 C. Cell cycle was measured using a FACS Calibur using Cell Quest Pro and Modfit software.

For another test, the system named is caspase 3, 7, 9 and PARP. Description: Caspase and PARP Western analysis, U251. The class given is cell-based, human. Particulars: U251, three days; Δ9-THC 1.7 μM and/or CBD 0.4 μM; FIG. 9.
Test [6] deals with MDA-MB231 cells. Description: MTT cell proliferation assay, MDA-MB231. Particulars: Homo sapiens, MDA-MB-231, 72 h, read-out: IC50 antiproliferative, MDA-MB231.
For a further test, the system named is MDA-MB436 cells. Kind of test: MTT cell proliferation assay, MDA-MB436. Particulars: Homo sapiens, MDA-MB-436, 72 h, read-out: IC50 antiproliferative, MDA-MB436.

Like-named read-outs stand apart in the source and are kept apart here.

In general, IC50 refers to the concentration needed to halve the response being measured. As for `CCCCCc1cc(O)c2c(c1)OC(C)(C)C1CCC(C)=CC21` (stereo not drawn) [Δ^9-THC, tetrahydrocannabinol], in the test on MDA-MB231 cells [1], the “invasion of MDA-MB231 cells” value is on record as “significantly reduced”. Besides, the “inhibition of Id-1 protein (structure activity relationship)” value is “No inhibition” in the test with Id-1 and “no activity” in the test on Id-1 (listed as THC). Besides, the IC50 in the test with SF126 cells (SF-126, 72 h, three day treatment, 95% confidence limits (Table 4)) is 2500 nM; in the test on SF126 cells (SF-126, 168 h, seven day treatment, 95% confidence limits), 900 nM; with U87 cells it was 1600 nM; with U251 cells [2], 1100 nM; in the test on U251 cells [3] (Homo sapiens, U-251, limits 49-150, read-out: predicted IC50 to inhibit U251 cell invasiveness) it was 85 nM; in the test with MDA-MB231 cells [6], 1200 nM. Further, the IC50 with MDA-MB436 cells worked out at 2500 nM. In the test with U251 cells [3] (Boyden chamber, FIG. 10), the “invasiveness of U251 cells” value is given as “effectively inhibited”. The “apoptosis in the presence of the CB2 antagonist SR144528” value in the test on U251 cells [4] (0.5 μM SR144528, combination 1.7/0.4 μM, 2.5 μM Δ9-THC or 2.0 μM CBD, FIG. 6) is recorded as “partially blocked”. Further, the “apoptosis in the presence of α-tocopherol” value with U251 cells [4] (20 μM α-tocopherol, combination 1.7/0.4 μM, 2.5 μM Δ9-THC or 2.0 μM CBD, FIG. 6) was “completely blocked”. In the test on U251 cells [4] (Δ9-THC 1.7 μM and/or CBD 0.4 μM, FIG. 5), the “apoptosis (annexin staining)” value was “did not produce significant changes”. Besides, the “p-ERK, higher concentrations alone compared with the combination” value with ERK, JNK, and p38 MAPK (U251, three days, 2.5 μM Δ9-THC, 2.0 μM CBD, or 1.7 μM/0.4 μM combination, FIG. 6D) is recorded as “no effect”. Moreover, the p-ERK result with ERK, JNK, and p38 MAPK (U251, Δ9-THC 1.7 μM and/or CBD 0.4 μM, two days, FIG. 4) is listed as “no changes”. For the same molecule, the cell cycle distribution result in the test with U251 cells [5] is “increases in the population of cells in G1 and G2/M phase and decreases in cells in S phase”. Further, the “caspase 3, 7, 9 and PARP activation” value in the test on caspase 3, 7, 9 and PARP is “Small increases in the activity of caspase 7, caspase 9 and PARP but not caspase 3”.
